≈ marks a conversion by molar mass, not a printed value. Counter-ions that a name gives are not always drawn. Like-named read-outs stand apart in the source and are kept apart here.
Legend:
[1] = test system: completely removed guinea-pig tracheas; test: Constrictive action of histamine di-hydrochloride on completely removed guinea-pig tracheas (in vitro); assay type: cell-based; settings: for IC50: Cavia porcellus, Table I, read-out: ED50 (the source's name); for IC50 / % inhibition: histamine di-hydrochloride 5.10^-6 g/ml
Procedure: Thirty white guinea-pigs were used, from which the tracheas were removed, after they had been killed by ethereal anaesthesia. The tracheas were placed in a 50 ml bath of Krebs solution, suitably oxygenated and thermoregulated at a temperature of 37° C. The lower end of the trachea was closed while the upper end was connected to a polythene tube connected to a transducer for measuring volume differences connected to a polygraph, according to D. Jamieson's method 1962, Brit. J. Pharmacol. and Chemiotherapy, 19, 286, partially modified. Both the trachea and the polythene tube were filled with Krebs solution. The responses of the tracheas thus prepared to acetylcholine and histamine were investigated before and after the addition of the product to the bath.

[2] = test system: bronchospasm by acetylcholine chloride in guinea-pigs; test: Bronchospasm by acetylcholine chloride (0.075 mg/kg i.v.) in guinea-pigs (Konzett and Roesler); assay type: in vivo, guinea-pig; settings: for ED50: Cavia porcellus, iv
Procedure: Exp. Path. […] J. Pharmcol. 15, 290. Male guinea-pigs weighing 300-450 g were used under urethane anaesthesia (lg/kg i.p.). The animals were suitably prepared by insertion of a cannula in the jugular vein for intravenous administrations while the trachea was connected to an artificial respiration pump (Palmer) adapted for small animals, which was operated at a frequency of approximately 70 insufflations per minute. The pneumogram was recorded by means of a transducer on a polygraph (Battaglia-Rangoni).

rabbits = test: Mucolytic activity: mucoproduction in rabbits before and after oral treatment; assay type: in vivo, rabbit; settings: for Mucoproduction (mg/h) M ± SD 4-0 h (before the treatment): baseline before treatment
Procedure: (b) Mucolytic activity of compound 1, doxophylline and bromohexyne hydrochloride For these tests the method described by Perry, W. F., Boyd, E. M., J. Pharmacol., 1941, 73, 65 and suitably modified by us was used. New Zealand-type, male, white rabbits weighing 2.8-3.5 kg. were used. Pre-operative preparation consisted of treatment with 9 mg/kg i.m. of a non-stupefying central analgesic ([…] local anaesthesia in the tracheal region with xylocaine (0.9 mg/kg - 1% solution). The surgical operation commenced 15-20 minutes after the pharmacological pre-treatment. The trachea was exposed and a hole approximately 5-6 mm in diameter was made in its ventral side. The trachea was then introduced into the lower arm of a three-way polypropylene cannula, which had been cut suitably, longitudinally so as to connect the hole made in the trachea with the aperture of the third arm (vertical) of the cannula, and thus put it into communication with the outside. Thus, the cannula surrounded the outside of the trachea and was fixed "in loco" with sterile surgical silk thread. A polypropylene container was attached to the vertical arm of the cannula for collecting the mucous (capacity approximately 2 ml), and the wound was then sutured. The tracheal mucous was collected for four hours before the oral administration of the substance under test and for four hours after the treatment.

in vivo = settings: po
Procedure: The products were administered in a 0.5% aqueous suspension of carboxymethylcellulose at a concentration of 1 ml/100 g of body weight.

[3] = General statements on side effects, habituation, toxicity and therapeutic index; settings: among compounds (1)-(4)

## Cn1c(=O)c2[nH]cnc2n(C)c1=O [AMINOPHYLLINE, aminophylline]
[1]
  IC50: 206 µg/mL (≈ 1140 µM)
[1]; concentration 100 x 10^-6 g/ml
  % inhibition: -10.9%
[1]; concentration 150 x 10^-6 g/ml
  % inhibition: -18.7%
[1]; concentration 200 x 10^-6 g/ml
  % inhibition: -46.15%
[1]; concentration 300 x 10^-6 g/ml
  % inhibition: -79.4%
[2]
  ED50: 4.97 mg/kg
[2]; read-out: ED50 mg/kg i.v.
  ED50: 4.97 mg/kg
[2]; dose 0.5 mg/kg i.v.
  % Variation in endobronchial pressure after administration of acetylcholine chloride (0,075 mg/kg i.v.) M ± SE: 158.7 ± 24.6%
  % inhibition vs. controls: -12.5%
[2]; dose 1 mg/kg i.v.
  % Variation in endobronchial pressure after administration of acetylcholine chloride (0,075 mg/kg i.v.) M ± SE: 135.7 ± 21.2%
  % inhibition vs. controls: -25.2%
[2]; dose 5 mg/kg i.v.
  % Variation in endobronchial pressure after administration of acetylcholine chloride (0,075 mg/kg i.v.) M ± SE: 117.0 ± 17.4%
  % inhibition vs. controls: -35.5%
[2]; dose 10 mg/kg i.v.
  % Variation in endobronchial pressure after administration of acetylcholine chloride (0,075 mg/kg i.v.) M ± SE: 49.9 ± 10.2%
  % inhibition vs. controls: -72.5%

## CN(Cc1cc(Br)cc(Br)c1N)C1CCCCC1 [BROMOHEXYNE, bromohexyne hydrochloride, reference compound]
rabbits; group dosed 400 mg/kg os
  Mucoproduction (mg/h) M ± SD 4-0 h (before the treatment): 28.9 ± 7.82 mg/h
rabbits; dose 400 mg/kg os
  % Variation with respect to its own base: +34.98%
  Mucoproduction (mg/h) M ± SD 0-4 h (after the treatment): 39.01 ± 4.34 mg/h

## Cn1c(=O)c2c(ncn2CC2SCCS2)n(C)c1=O [COMPOUND 1, 7-[2'-(1',3'-dithiolanyl)-methyl]-theophylline]
In vivo; mouse
  LD50 at 480 h: 1510 mg/kg
In vivo; rat
  LD50 at 480 h: 1840 mg/kg
[3]
  therapeutic index (in words): most favourable therapeutic index
[1]
  IC50: 126 µg/mL (≈ 423 µM)
[1]; concentration 50 x 10^-6 g/ml
  % inhibition: -17.2%
[1]; concentration 100 x 10^-6 g/ml
  % inhibition: -32.5%
[1]; concentration 200 x 10^-6 g/ml
  % inhibition: -62.5%
[1]; concentration 300 x 10^-6 g/ml
  % inhibition: -95.0%
[1]; on the basis of the results obtained in vitro
  activity in vitro, ranking among the compounds: the most active
rabbits; group dosed 10 mg/kg os
  Mucoproduction (mg/h) M ± SD 4-0 h (before the treatment): 30.6 ± 9.43 mg/h
rabbits; group dosed 30 mg/kg os
  Mucoproduction (mg/h) M ± SD 4-0 h (before the treatment): 27.2 ± 5.22 mg/h
rabbits; group dosed 100 mg/kg os
  Mucoproduction (mg/h) M ± SD 4-0 h (before the treatment): 29.7 ± 4.95 mg/h
rabbits; compound at 100 mg/kg vs bromohexyne hydrochloride at 400 mg/kg
  mucolytic activity compared with bromohexyne hydrochloride: more active than bromohexyne hydrochloride at a dose of 400 mg/kg
rabbits; dose 10 mg/kg os
  % Variation with respect to its own base: +13.95%
  Mucoproduction (mg/h) M ± SD 0-4 h (after the treatment): 34.87 ± 10.25 mg/h
rabbits; dose 30 mg/kg os
  % Variation with respect to its own base: +26.95%
  Mucoproduction (mg/h) M ± SD 0-4 h (after the treatment): 34.53 ± 4.16 mg/h
rabbits; dose 100 mg/kg os
  % Variation with respect to its own base: +57.27%
  Mucoproduction (mg/h) M ± SD 0-4 h (after the treatment): 46.71 ± 8.82 mg/h
rabbits; rabbits, oral
  mucolytic activity (in words): dose-related mucolytic activity
[2]; Table II, i.v., read-out: ED50 mg/kg i.v.
  ED50: 0.99 mg/kg
[2]; legend of FIG. 2, unit inferred, read-out: ED 50
  ED50: 0.996 mg/kg
[2]; dose 0.1 mg/kg i.v.
  % Variation in endobronchial pressure after administration of acetylcholine chloride (0,075 mg/kg i.v.) M ± SE: 166.0 ± 22.4%
  % inhibition vs. controls: -8.5%
[2]; dose 0.5 mg/kg i.v.
  % Variation in endobronchial pressure after administration of acetylcholine chloride (0,075 mg/kg i.v.) M ± SE: 145.1 ± 18.7%
  % inhibition vs. controls: -20.0%
[2]; dose 1 mg/kg i.v.
  % Variation in endobronchial pressure after administration of acetylcholine chloride (0,075 mg/kg i.v.) M ± SE: 87.1 ± 15.2%
  % inhibition vs. controls: -52.0%
[2]; dose 2 mg/kg i.v.
  % Variation in endobronchial pressure after administration of acetylcholine chloride (0,075 mg/kg i.v.) M ± SE: 51.7 ± 6.5%
  % inhibition vs. controls: -71.5%
[2]; from Table II
  antibronchospastic effect relative to aminophylline: approximately five times that of aminophylline
  antibronchospastic effect relative to doxophylline: approximately twice that of doxophylline

## Cn1c(=O)c2c(ncn2CC2SCCCS2)n(C)c1=O [COMPOUND 2, 7-[2'-(1',3'-dithianyl)-methyl]-theophylline]
[1]
  IC50: 837 µg/mL (≈ 2680 µM)
[1]; concentration 100 x 10^-6 g/ml
  % inhibition: -12.0%
[1]; concentration 200 x 10^-6 g/ml
  % inhibition: -18.5%
[1]; concentration 250 x 10^-6 g/ml
  % inhibition: -26.5%
[1]; concentration 400 x 10^-6 g/ml
  % inhibition: -38.5%
